Measured values: BindingDB's records for doi:10.1016/j.bmc.2008.09.053 (Chiba University, 2008)

Target: T1, Zinc finger protein GLI1 (Homo sapiens, UniProt P08151)
T1 sequence (P08151 whole entry): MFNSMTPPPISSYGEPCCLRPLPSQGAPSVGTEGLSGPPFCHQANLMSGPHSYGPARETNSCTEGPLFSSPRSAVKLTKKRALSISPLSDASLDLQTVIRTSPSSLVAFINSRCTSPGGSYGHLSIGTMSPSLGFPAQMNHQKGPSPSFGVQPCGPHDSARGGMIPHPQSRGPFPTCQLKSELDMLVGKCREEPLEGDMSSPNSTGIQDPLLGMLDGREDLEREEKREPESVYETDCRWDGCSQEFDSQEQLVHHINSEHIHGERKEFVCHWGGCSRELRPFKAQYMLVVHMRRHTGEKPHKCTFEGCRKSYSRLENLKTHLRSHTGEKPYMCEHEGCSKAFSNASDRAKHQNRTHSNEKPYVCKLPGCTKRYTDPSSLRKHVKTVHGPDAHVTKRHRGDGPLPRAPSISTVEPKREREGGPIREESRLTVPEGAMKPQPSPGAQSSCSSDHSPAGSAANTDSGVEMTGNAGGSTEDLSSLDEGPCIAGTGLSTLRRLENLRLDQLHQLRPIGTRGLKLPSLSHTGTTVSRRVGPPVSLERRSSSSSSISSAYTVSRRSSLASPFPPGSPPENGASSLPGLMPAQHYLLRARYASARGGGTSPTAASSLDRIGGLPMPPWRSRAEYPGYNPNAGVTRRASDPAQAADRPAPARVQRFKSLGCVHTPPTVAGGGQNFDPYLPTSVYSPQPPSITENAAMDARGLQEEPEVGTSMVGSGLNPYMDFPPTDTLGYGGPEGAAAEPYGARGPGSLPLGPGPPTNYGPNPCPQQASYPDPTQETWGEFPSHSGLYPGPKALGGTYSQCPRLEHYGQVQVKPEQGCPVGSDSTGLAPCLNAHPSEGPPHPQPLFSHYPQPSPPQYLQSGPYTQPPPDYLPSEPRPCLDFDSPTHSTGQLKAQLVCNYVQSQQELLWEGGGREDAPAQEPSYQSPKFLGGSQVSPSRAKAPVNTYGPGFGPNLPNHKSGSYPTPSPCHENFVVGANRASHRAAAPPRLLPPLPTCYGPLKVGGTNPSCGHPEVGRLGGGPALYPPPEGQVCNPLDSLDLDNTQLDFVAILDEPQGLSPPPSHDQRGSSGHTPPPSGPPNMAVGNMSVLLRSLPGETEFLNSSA
Test: Inhibition of GLI1-mediated transcriptional activity in human HaCaT cells by luciferase based reporter gene assay

Work on `C=C(C)[C@@H]1CC[C@]2(C(=O)O)CC[C@]3(C)[C@H](CC[C@@H]4[C@@]5(C)[C@@H](C(=O)O)[C@H](O)C(C)(C)[C@@H]5CC[C@]43C)[C@@H]12` yielded an IC50 of over 200 µM.

In the case of `C=C(C)[C@@H]1CC[C@]2(C(=O)O)CC[C@]3(C)[C@H](CC[C@@H]4[C@@]5(C)[C@H](CO)[C@@H](O)C(C)(C)[C@@H]5CC[C@]43C)[C@@H]12` [ceanothanolic acid], the IC50 is reported as 133 µM.
